Measurements from patent US20260297542A1, “HERBICIDE RESISTANT PLANTS” (SYNGENTA CROP PROTECTION AG, priority 2023, published 2026).
Positions count from the first letter of the chain named. Read-outs that look alike come from different tables or passages of the source.

Key:
[1] = target: T1, His-TEV-AtPP01 ΔcTP L479M (SEQ ID NO: 371) (Arabidopsis thaliana, UniProt P55826, L479M); experiment: PPO fluorescence IC50 assay, partially purified enzyme; type: biochemical
T1 construct: with cTPs removed; made in house; host or cells: E. coli BL21 (DE3), His GraviTrap, partially purified
T1 sequence (P55826 with tags, fused parts or gaps L479M): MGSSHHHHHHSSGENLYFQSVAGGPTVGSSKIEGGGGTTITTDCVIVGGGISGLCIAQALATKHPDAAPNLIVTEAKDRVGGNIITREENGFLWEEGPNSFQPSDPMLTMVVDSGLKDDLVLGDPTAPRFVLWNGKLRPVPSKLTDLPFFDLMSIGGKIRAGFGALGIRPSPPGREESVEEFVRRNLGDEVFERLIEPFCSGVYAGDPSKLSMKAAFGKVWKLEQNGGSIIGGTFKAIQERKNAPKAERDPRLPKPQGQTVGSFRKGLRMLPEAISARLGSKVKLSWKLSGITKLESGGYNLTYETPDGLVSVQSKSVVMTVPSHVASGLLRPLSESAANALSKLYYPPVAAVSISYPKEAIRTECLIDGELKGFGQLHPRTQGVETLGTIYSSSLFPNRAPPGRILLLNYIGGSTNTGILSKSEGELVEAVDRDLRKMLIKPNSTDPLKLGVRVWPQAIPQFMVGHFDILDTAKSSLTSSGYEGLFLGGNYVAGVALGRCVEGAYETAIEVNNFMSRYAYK
Description: (§1) A pET24 plasmid containing a DNA sequence encoding variants of AtPPO1 derived from Arabidopsis thaliana with cTPs removed and both a 6×His tag and TEV protease cleavage tag added at the N-terminus, codon-optimised for expression in E. coli, and under control of a T7 promoter, was synthesised by Twist Bioscience. The following variants were synthesised: WT AtPPO1 (SEQ ID NO: 370), AtPPO1 L479M (SEQ ID NO: 371), AtPPO1 L479N (SEQ ID NO: 372), AtPPO1 S305L Y426V (SEQ ID NO: 374) and AtPPO1 S305L Y426V L479M (SEQ ID NO: 373). This plasmid was expressed in E. coli BL21 (DE3) with 50 μg/mL kanamycin selection. 10 mL of overnight cultures grown at 37° C. were used to inoculate 1 L AIM (AIM-Terrific Broth Base including Trace elements, Formedium) in 2 L shake flasks. Cultures were grown at 37° C., 200 rpm for 3 hours and then overnight at 26° C. Cells were harvested centrifugation. 5-15 g of cell pellet was lysed in and resuspended in ratio of 1:1.5 in lysis buffer (20 mM Tris pH8, 500 mM sodium chloride, 10% glycerol, 1× complete Protease EDTA-free Inhibitor Tablet (Roche), 10 mM imidazole). The resuspension was sonicated at 75% using 10 cycles of 30 seconds, 40 seconds off. After sonication Triton X-100 was added to the lysates at a final concentration of 0.5%. The lysates were centrifuged at 20,000 rpm for 25 min at 4° C. Cleared lysates were loaded on His GraviTrap (Cytiva) columns, washed with 20 mL of lysis buffer and eluted in elution buffer (20 mM Tris pH8, 500 mM sodium chloride, 10% glycerol, 200 mM imidazole, 0.03% (v/v) Triton X-100). The eluate was desalted on a PD10 column and 2.5-3.2 mL was collected. Protein concentration was measured and calculated using the absorbance at 280 nm. Extracts were diluted 1 in 4 and 10 uL was analysed by SDS PAGE.
(§2) Partially purified Protoporphyrinogen Oxidase enzymes were assayed for activity using fluorescence adapted from the method of Shepherd & Dailey (Anal Biochem. 2005 344(1) 115-121). The assay was performed in black 384 well plates with a clear bottom and the total volume of the reaction mixture was 91 ul. The final assay mixture contained 100 mM K2HPO4 pH7.2, 1 mM Na2EDTA, 5 mM DTT, 20% glycerol (v/v), 0.05% Tween 20 (v/v), 1.1% DMSO (v/v), 1 uM protoporphyrinogen IX and 1.5 nM enzyme. Compounds were dissolved in DMSO at 1 mM and a 4-fold serial dilution carried out to give 8 rates. 1 ul was added to the assay mixture. This gave final compound concentrations of 11, 2.7, 0.69, 0.17, 0.04, 0.01, 0.002, 0.0007 uM. Enzyme and inhibitor were preincubated for 5 minutes prior to starting the reaction with the addition of the substrate. […] IC50s were calculated using GraphPad Prism 7.05 nonlinear regression (Table 6). Each compound was tested in duplicate.

[2] = target: T2, His-TEV-AtPP01 ΔcTP V030 (SEQ ID NO: 374) (Arabidopsis thaliana, UniProt P55826, S305L/Y426V); experiment: as above; type: biochemical
T2 construct: with cTPs removed; made in house; host or cells: E. coli BL21 (DE3), His GraviTrap, partially purified
T2 sequence (P55826 with tags, fused parts or gaps S305L/Y426V): T1 sequence (P55826 with tags, fused parts or gaps L479M) with S290L, Y411V, M464L
Description: as §1, §2

[3] = role: inhibitor, 1 uM protoporphyrinogen IX, <1.0 is below detection limit of assay

| Compound | IC50 [1] [nM] | IC50 [2] [nM] | IC50 [1, 3] [nM] | IC50 [2, 3] [nM] |
| --- | --- | --- | --- | --- |
| C#CCN1C(=O)COc2cc(F)c(N3C(=O)C4=C(CCCC4)C3=O)cc21 [Flumioxazin, flumioxazin] | 1 | 47.2 |  |  |
| CC(C)Oc1cc(-n2nc(C(C)(C)C)oc2=O)c(Cl)cc1Cl [Oxadiazaon] | 11.2 | 4600 |  |  |
| CC(C)N(C)S(=O)(=O)NC(=O)c1cc(-n2c(=O)cc(C(F)(F)F)n(C)c2=O)c(F)cc1Cl [Herbicide E, saflufenacil] | 2.4 | 547 |  |  |
| C#CCN1C(=O)C(F)(F)Oc2cc(F)c(-n3c(=O)n(C)c(=S)n(C)c3=O)cc21 [Herbicide B, trifludimoxazin] | 0.8 | 1.3 |  |  |
| CS(=O)(=O)NC(=O)c1cc(Oc2ccc(C(F)(F)F)cc2Cl)ccc1[N+](=O)[O-] [Fomesafen, fomesafen] | 1.2 | 0.7 |  |  |
| CCOC(=O)COc1ncccc1Oc1cc(-n2c(=O)cc(C(F)(F)F)n(C)c2=O)c(F)cc1Cl [Herbicide A, epyrifenacil] | 0.8 | 323 |  |  |
| CCOC(=O)COc1cc(-c2nn(C)c(OC(F)F)c2Cl)c(F)cc1Cl [Pyraflufen-ethyl, pyraflufen-ethyl] | 0.7 | 18.6 |  |  |
| CCOC(=O)C1(C)CC(c2cc(-n3c(=O)cc(C(F)(F)F)n(C)c3=O)c(F)cc2Cl)=NO1 (centres unmarked) [Herbicide C, 3-(2-chloro-4-fluoro-5-(3-methyl-2,6-dioxo-4-trifluoromethyl-3,6-dihydropyrimidin-1(2H)-yl)phenyl)-5-methyl-4,5-dihydroisoxazole-5-carboxylic acid ethyl ester] | 0.8 | 92 |  |  |
| COC(=O)C(C)ON=Cc1cc(-n2c(=O)cc(C(F)(F)F)n(C)c2=O)c(F)cc1Cl (centres unmarked) [Flufenoximacil, flufenoximacil] |  |  | 0.7 | 717 |
| CCOC(=O)[C@]1(C)CC(c2cc(-n3c(=O)n(C)c(=S)n(C)c3=O)c(F)cc2Cl)=NO1 [Herbicide D, ethyl (5S)-3-[2-chloro-5-(3,5-dimethyl-2,6-dioxo-4-thioxo-1,3,5-triazinan-1-yl)-4-fluoro-phenyl]-5-methyl-4H-isoxazole-5-carboxylate] | 0.6 | 269 |  |  |
| C#CCN(C)c1c(C#N)cnn1-c1nn2c(c1Cl)CCCC2 [Pyraclonil] | 2.3 | 4350 |  |  |
| C=CCOC(=O)C(C)(C)OC(=O)c1cc(-n2c(=O)cc(C(F)(F)F)n(C)c2=O)ccc1Cl [Butafenacil, butafenacil] | 0.7 | 11 |  |  |
| C#CCOc1cc(-n2nc3n(c2=O)CCCC3)c(Cl)cc1Cl [Azafenadin] | 0.7 | 117 |  |  |
